Experimental data from US6844004B2, “Topical formulations of natamycin/pimaricin” (Board of Regents, The University of Texas System, priority 1997, dated 2005).
≈ marks a conversion by molar mass, not a printed value.

Legend:
[1] = surface in contact with AMB; cited from earlier work
[2] = system: A. flavus; experiment: Antifungal sensitivity (MIC); format: cell-based; conditions: Aspergillus flavus; the tested A. flavus
Procedure: (§1) Methodology. The antifungal activity of Natamycin was compared with that of amphotericin B utilizing a previously described assay (Anaissie et al., 1991). Briefly, serial dilutions of Natamycin and AMB were mixed in RPMI growth medium with L-glutamine and MOPS-buffer, pH 7.0 (Sigma Chemical Co., St. Louis, Mo.). The different strains of Candida, Aspergillus and Fusarium spp. were then added to the dishes. After incubation at 35° C. for 48 to 72 hours the plates were evaluated for fungal proliferation. The used fungal strains were obtained from the ATCC or isolated from patients, primarily at the MD Anderson Cancer Center. The Natamycin concentrations in the used solutions were assayed with HPLC to assure the highest possible reproducibility of the drug concentrations.

[3] = system: tested strains of Candida spp.; experiment: Antifungal sensitivity (MIC); format: cell-based; conditions: all tested strains of Candida spp.
Procedure: as §1

[4] = system: Aspergillus strains, except for A. flavus; experiment: Antifungal sensitivity (MIC); format: cell-based; conditions: all Aspergillus strains except A. flavus
Procedure: as §1

[5] = system: tested strains of Fusarium; experiment: Antifungal sensitivity (MIC); format: cell-based; conditions: all tested strains of Fusarium
Procedure: as §1

[6] = format: physicochemical
Procedure: Stability of the various Natamycin formulations. To study the physical and chemical stability of the various parenteral formulations, three sets of studies were performed: • (a) Natamycin was dissolved at a concentration of 100-300 mg/ml in HAc (“stock solution”) and incubated at 4° C., at 22° C. and at 40° C. The drug concentration was analyzed by HPLC in samples taken immediately after solubilization and after gradually increasing time intervals of up to 48 hours. • (b) The Natamycin-HAc stock solution was diluted with PEG/water (1:1:1, v:v:v, HAc:PEG:water), or PG/DMSO (1:1:1, v:v:v), or PG/DMSO/PEG (1:1:1:1, v:v:v:v), or aqueous lipid emulsion (1:10 and 1:100, v:v, HAc:Intralipid™), to yield Natamycin concentrations ranging from 1-50 mg/ml. • (c) The HAc-Natamycin mixture was diluted in NS or 5% dextrose to a drug concentration of 1 mg/ml. (d) The HAc-Natamycin mixture was blended with DMSO and Intralipid™, or directly in Intralipid™.
The various formulations were analyzed by HPLC immediately after mixing, then hourly for 8 hours, and then at gradually increasing time intervals up to several weeks, depending on the rate of degradation in the respective solvent system.
The temperature-dependent stability of solubilized Natamycin in the different solvent systems was studied as follows: The drug was dissolved in HAc at 100 mg/ml, and different aliquots were stored at 4° C., at 22° C., and at 40° C. Immediately after solubilization and at various intervals up to 48 hours later, aliquots from the different samples were analyzed by HPLC. The drug samples stored at 4° C. and at 22° C. degraded slower than those stored at higher temperatures: at 40° C. the Natamycin started degrading within 1 hour after the start of incubation, and at RT there was a loss of 5-10% in the first 4 hours.

[7] = physchem; format: physicochemical; conditions: 22 °C, organic solvent or mixture, thermodynamic from solid
Procedure: Natamycin solubility was determined in several individual vehicles (see Table I). Briefly, a known amount of the drug, as a powder (different lots of purified drug were obtained from Gist-Brocades N.V., Netherlands, and from Sigma Chemical Company, St Louis, Mo.), was equilibrated in the respective solvent at RT (22° C.) over 5 min to 4 hours. An aliquot was then removed and diluted in MeOH prior to HPLC at predetermined times. Based on the Natamycin solubility in these particular vehicles, the inventors attempted to enhance the solubility by mixing different solvents according to the principle of cosolvency (Spiegel and Noseworthy, 1963; Yalkowsky and Roseman, 1981). Several different solvent systems were evaluated relative to the above estimates of necessary solubility to arrive at a clinically relevant optimal stock formulation. […] The “final solvent” is preferably one of the commonly available ointment bases, such as petroleum jelly, cocoa butter, Aquaphor™, all of which are readily available and commonly used for topical administration, either for moisturizing purpose or for dissolving various chemically active compounds.
Solubility Studies. […] Samples of 1 ml were taken at various time intervals, and filtered through a 0.45 μm PTFE™ membrane filter fitted to a syringe assembly (Whatman Inc.), and after appropriate dilution, the Natamycin concentration was determined by HPLC.

Structure (SMILES) | inflammation of the mucosal surface, share of treated subjects [1] [%] | MIC [2] [µg/mL] | MIC (sensitive in the range) [3] [µg/mL] | MIC [4] [µg/mL] | MIC (sensitive in the range) [5] [µg/mL] | loss of drug (degradation) ([6]; 100 mg/ml) | time to start of degradation ([6]; 100 mg/ml) [h] | time until degradation apparent ([6]; 100 mg/ml) [h] | time stable (by HPLC) ([6]; HAc and DMSO primary solvent, Intralipid, lyophilized, reconstituted to 10 mg/ml with distilled water, RT) | time stable ([6]; HAc-Natamycin stock diluted with 20% Intralipid to 10-50 mg/ml) | solubility thermodynamic [7] [mg/mL]
C[C@@H]1[C@H](O)[C@@H](C)/C=C/C=C/C=C/C=C/C=C/C=C/C=C/[C@H](O[C@@H]2O[C@H](C)[C@@H](O)[C@H](N)[C@@H]2O)C[C@@H]2O[C@](O)(C[C@@H](O)C[C@@H](O)[C@H](O)CC[C@@H](O)C[C@@H](O)CC(=O)O[C@H]1C)C[C@H](O)[C@H]2C(=O)O [AMB, Amphotericin B] | > 75 |  |  |  |  |  |  |  |  |  | 
C[C@@H]1C/C=C/C=C/C=C/C=C/[C@H](O[C@@H]2O[C@H](C)[C@@H](O)[C@H](N)[C@@H]2O)C[C@@H]2O[C@](O)(C[C@@H](O)C[C@H]3O[C@@H]3/C=C/C(=O)O1)C[C@H](O)[C@H]2C(=O)O [Natamycin, Pimaricin] |  | 16 (≈ 24 µM) | 2 to 4 | 2 to 4 (≈ 3 to 6.01 µM) | 2 to 4 | 5-10% | ≤ 1 | 8 to 12 | more than 24 hours | more than 6 weeks | > 100
